Data taken from ChEMBL document CHEMBL1137034, “Synthesis of 1H-pyridin-2-one derivatives as potent and selective farnesyltransferase inhibitors” (Bioorg Med Chem Lett, 2004).

How the values were obtained:
[1] = biological target: Protein farnesyltransferase (Mus musculus, UniProt Q61239+Q8K2I1); assay: Reduced farnesylation of H-ras transformed NIH3T3 cells; format: functional, cell-based
[2] = Inhibition of [3H]FPP incorporation into biotin-linked K-ras decapeptide (CVIM) by bovine farnesyltransferase; parameters: species or system Bos taurus
[3] = biological target: T1, Geranylgeranyl transferase type I (Bos taurus, UniProt P29702+Q5EAD5); assay: inhibitory concentration needed to reduce the bovine GGTase-catalyzed incorporation of […] into a biotin-linked K-ras (B) decapeptide; format: protein-complex assay
[4] = Inhibition of [3H]-FPP incorporation into biotin-linked K-ras decapeptide (CVIM) by bovine farnesyltransferase; parameters: species or system Bos taurus
[5] = biological target: T1, Geranylgeranyl transferase type I; assay: Inhibition of [3H]FPP incorporation into biotin-linked K-ras decapeptide (CVLL) by bovine geranylgeranyltransferase; format: protein-complex assay
[6] = Plasma clearance was determined; format: ADME, organism-based, Canis lupus familiaris; conditions: dog, in vivo
[7] = Half life in dog; format: ADME, Canis lupus familiaris; conditions: in vivo
[8] = Oral bioavailability in dog; format: ADME, organism-based, Canis lupus familiaris; conditions: in vivo

Row | SMILES | EC50 [1] | IC50 [2] | IC50 [3] | other results
1 | Cn1cncc1C(OCc1c(-c2cccc(Cl)c2)cc(C#N)n(C)c1=O)c1ccc(C#N)cc1 (configuration not stated) | 11.4 nM | 1.2 nM | > 10000 nM | –
2 | Cn1cncc1C(OCc1cn(Cc2ccccc2C#N)c(=O)cc1-c1cccc(Cl)c1)c1ccc(C#N)cc1 (configuration not stated) | – | 2.3 nM | 7700 nM | –
3 | Cn1cncc1C(OCc1cn(Cc2ccc(C#N)cc2)c(=O)cc1-c1cccc(Cl)c1)c1ccc(C#N)cc1 (configuration not stated) | – | – | – | IC50 [4]: 5 nM; IC50 [5]: > 10000 nM
4 | Cn1cncc1C(OCc1cn(Cc2cccnc2Br)c(=O)cc1-c1cccc(Cl)c1)c1ccc(C#N)cc1 (configuration not stated) | – | 3 nM | 6600 nM | –
5 | Cn1cncc1C(OCc1cn(C)c(=O)cc1-c1cccc(Cl)c1)c1ccc(C#N)cc1 (configuration not stated) | – | 12 nM | > 10000 nM | –
6 | Cn1cncc1C(OCc1c(-c2cc(Cl)cc(Cl)c2)cc(C#N)n(C)c1=O)c1ccc(C#N)cc1 (configuration not stated) | 15 nM | 1.1 nM | 9400 nM | –
7 | Cn1cncc1C(OCc1cn(CC#N)c(=O)cc1-c1cccc(Cl)c1)c1ccc(C#N)cc1 (configuration not stated) | – | 19 nM | > 10000 nM | –

Continued by falling IC50 [3], values first:

Row | EC50 [1] | IC50 [2] | IC50 [3] | SMILES | other results
8 | – | – | 6200 nM | Cn1cncc1C(OCc1c[nH]c(=O)cc1-c1cccc(Cl)c1)c1ccc(C#N)cc1 (configuration not stated) | –
9 | – | 7.5 nM | 3600 nM | Cn1cncc1C(OCc1c(-c2cccc(C(F)(F)F)c2)cc(C#N)n(C)c1=O)c1ccc(C#N)cc1 (configuration not stated) | –
10 | 15 nM | 2.1 nM | 2000 nM | Cn1cncc1C(OCc1cn(Cc2cccc(F)c2)c(=O)cc1-c1cccc(Cl)c1)c1ccc(C#N)cc1 (configuration not stated) | –
11 | 9 nM | 1.3 nM | 1900 nM | Cn1cncc1C(OCc1cn(Cc2cccc(C#N)c2)c(=O)cc1-c1cccc(Cl)c1)c1ccc(C#N)cc1 (configuration not stated) | Plasma clearance [6]: 8.83 mL/min/kg; half-life [7]: 1.4 h; bioavailability [8]: 47%
12 | 10 nM | 2.1 nM | 1200 nM | Cn1cncc1C(OCc1cn(Cc2cccc(Cl)c2)c(=O)cc1-c1cccc(Cl)c1)c1ccc(C#N)cc1 (configuration not stated) | –
13 | 0.5 nM | 0.44 nM | 2.7 nM | Cn1cncc1C(OCc1c(-c2cccc(Cl)c2)cc(C#N)c(=O)n1C)c1ccc(C#N)cc1 (configuration not stated) | –
14 | 5.2 nM | 0.87 nM | 1.3 nM | Cn1cncc1C(OCc1ccc(C#N)cc1-c1cccc(Cl)c1)c1ccc(C#N)cc1 (configuration not stated) | –
